Where a name gives a salt, the structure may show the parent alone.
Assay: collision cross section in nitrogen (drift tube, single-field); higher = larger gas-phase ion size
[1] = ion source: ESI, ion mode: Positive, ion type: [M]+ (permanent cation)
[2] = ion type: [M+H], ion source: ESI, ion mode: Positive
[3] = ion type: [M-H], ion source: ESI, ion mode: Negative
[4] = ion source: APCI, ion mode: Positive, ion type: [M]+ (permanent cation)
[5] = ion type: [M+H], ion source: APCI, ion mode: Positive
[6] = ion type: [M+Na], ion source: ESI, ion mode: Positive
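Note: chemical standards at 10 µM analysed by drift tube IMS-QTOF MS in about 3.95 torr nitrogen, mean of duplicate injections differing ≤1%, mass error below 10 ppm.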

Row | collision cross section in nitrogen [2] [Å²] | collision cross section in nitrogen [3] [Å²] | collision cross section in nitrogen [6] [Å²] | SMILES | further results
1 | – | – | – | CCCC[n+]1ccccc1 [N-Butylpyridinium chloride] | collision cross section in nitrogen [1]: 127.7 Å²
2 | 120.2 | 115 | – | Oc1cccc(O)n1 [6-Hydroxy-2-oxopyridinium chloride] | –
3 | – | – | – | Cn1c(-c2ccccc2)cc(-c2ccccc2)[n+]1C [Difenzoquat metilsulfate] | collision cross section in nitrogen [4]: 160 Å²; collision cross section in nitrogen [1]: 160.8 Å²
4 | – | 155.4 | – | Cc1ccc(O)c(-n2nc3ccccc3n2)c1 [2-(2H-Benzotriazol-2-yl)-4-methylphenol] | –
5 | 185.2 | – | – | CCCCC(CC)COC(=O)c1ccc(N(C)C)cc1 (configuration not stated) [4-(Dimethylamino)benzoic acid 2-ethylhexyl ester] | collision cross section in nitrogen [5]: 185.9 Å²
6 | – | – | 194.8 | CCOC(=O)C1=NN(c2ccc(Cl)cc2Cl)C(C)(C(=O)OCC)C1 (configuration not stated) [Mefenpyr-diethyl] | –
7 | – | 115.4 | – | O=c1[nH]cc(F)c(=O)[nH]1 [5-Fluorouracil] | –
8 | – | 165.9 | – | CCc1cccc(C)c1N(C(=O)C(=O)O)C(C)COC (configuration not stated) [Metolachlor OA] | –
9 | 171.7 | 174.2 | 185.9 | Cc1ccc2nc(-c3ccc(N)cc3)sc2c1S(=O)(=O)O [2-(4-Aminophenyl)-6-methylbenzothiazole sulfonic acid] | –
10 | 200.2 | 199 | – | Clc1ccc(-c2nc3sccn3c2/C=N/OCc2ccc(Cl)c(Cl)c2)cc1 [CITCO] | collision cross section in nitrogen [5]: 200.6 Å²
11 | – | 173 | – | NS(=O)(=O)c1cc(C(=O)O)c(NCc2ccco2)cc1Cl [Furosemide] | –
12 | – | 138.2 | – | Cc1ccc(C)c(S(=O)(=O)O)c1 [2,5-Dimethylbenzenesulfonic acid monohydrate] | –
13 | 164.1 | 168 | 175 | COc1ccc(-c2coc3cc(O)cc(O)c3c2=O)cc1 [Biochanin A] | collision cross section in nitrogen [5]: 164.6 Å²
14 | 128 | – | – | Cc1ncc([N+](=O)[O-])n1C [1,2-Dimethyl-5-nitroimidazole] | –
15 | 131.9 | – | – | CN(C)CCCNCCC#N [3-{[3-(Dimethylamino)propyl]amino}propanenitrile] | collision cross section in nitrogen [5]: 130.8 Å²
16 | – | 169 | – | O=C(Nc1ccc(Cl)cc1)Nc1ccc(Cl)c(Cl)c1 [Triclocarban] | –
17 | – | 134.6 | – | O=C(O)CNc1ccccc1 [Potassium anilinoacetate] | –
18 | – | 160.9 | – | Cc1cccc(Nc2ccccc2C(=O)O)c1C [Mefenamic acid] | collision cross section in nitrogen (ion type: [M+], ion source: APCI, ion mode: Positive): 152.3 Å²
19 | – | 138.7 | – | CNC[C@H](O)c1cccc(O)c1 [(-)-Phenylephrine hydrochloride] | –
20 | 183.9 | 186 | 194.4 | CC(=O)c1ccc2c(c1)[C@H](NC(=O)c1ccc(F)cc1)[C@@H](O)C(C)(C)O2 [Carabersat] | collision cross section in nitrogen [5]: 184.1 Å²
21 | – | – | – | F[B-](F)(F)F [Sodium tetrafluoroborate] | collision cross section in nitrogen (ion source: ESI, ion mode: Negative, ion type: [M]- (permanent anion)): 101 Å²
22 | – | 161.9 | – | CC(C)(c1ccc(O)cc1)c1ccc(O)cc1 [Bisphenol A] | –
23 | 134.4 | 137 | 144.7 | CN(C)C(=O)Nc1ccccc1 [Fenuron] | collision cross section in nitrogen [5]: 134 Å²
24 | 136.7 | – | – | CCCCN(CCO)CCO [N-Butyldiethanolamine] | collision cross section in nitrogen [5]: 136.3 Å²
25 | 185.7 | 186.5 | – | C[C@]12CC[C@H]3[C@@H](CCC4=CC(=O)CC[C@@]43C)[C@@H]1CC[C@@H]2C(=O)CO [21-Hydroxyprogesterone] | –
26 | – | 164.7 | – | O=c1c(O)c(-c2ccc(O)c(O)c2)oc2cc(O)cc(O)c12 [Quercetin] | –

Row | collision cross section in nitrogen [2] [Å²] | collision cross section in nitrogen [3] [Å²] | collision cross section in nitrogen [6] [Å²] | SMILES | further results
27 | 141.1 | – | – | c1ccc(CCCc2ccccn2)cc1 [2-(3-Phenylpropyl)pyridine] | collision cross section in nitrogen [5]: 140.8 Å²
28 | 226.4 | – | 222 | CC(=O)Oc1c(C)c(C)c2c(c1C)CC[C@@](C)(CCC[C@H](C)CCC[C@H](C)CCCC(C)C)O2 (racemic) [dl-alpha-Tocopheryl acetate] | –
29 | – | 169.5 | 180.3 | CCCCC[C@H](O)CC(=O)CCc1ccc(O)c(OC)c1 [(6)-Gingerol] | –
30 | 133.7 | – | – | CCNc1nc(N)nc(Cl)n1 [Deisopropylatrazine] | collision cross section in nitrogen [5]: 133.5 Å²
31 | – | – | – | CN(C)c1ccc(C(=C2C=CC(=[N+](C)C)C=C2)c2ccc(N(C)C)cc2)cc1 [Gentian Violet] | collision cross section in nitrogen [4]: 205 Å²; collision cross section in nitrogen [1]: 205.8 Å²
32 | – | 152 | – | C=CC(C)(CCC=C(C)C)OC(C)=O (configuration not stated) [Linalyl acetate] | –
33 | – | 127.7 | – | c1ccc(-c2nnn[nH]2)cc1 [5-Phenyl-1H-tetrazole] | –
34 | – | – | 170.6 | COC(OC)(C(=O)c1ccccc1)c1ccccc1 [2,2-Dimethoxy-1,2-diphenylethanone] | –
35 | – | – | 156.9 | Nc1ccn([C@@H]2O[C@H](CO)[C@@H](O)[C@@H]2O)c(=O)n1 [Cytarabine] | –
36 | – | 140.7 | – | Oc1cc2ccccc2c2ccccc12 [9-Phenanthrol] | –
37 | – | 165.3 | 178.2 | O=C1OC[C@H](Cc2cccc(O)c2)[C@H]1Cc1cccc(O)c1 [(-)-Enterolactone] | –
38 | 180.2 | – | – | CCCCCCCC/C=C\CCCCCCCCN [(Z)-9-Octadecenylamine] | –
39 | – | 134.5 | – | Nc1ccc(S(=O)(=O)O)cc1 [4-Aminobenzenesulfonic acid] | –
40 | – | – | 161.4 | CC(C)C(=O)OCC(C)(C)C(O)C(C)C (configuration not stated) [Texanol] | –
41 | 141.3 | – | 145.3 | CCc1c(C)cc(N)c(CC)c1N [Diethylmethylbenzenediamine] | collision cross section in nitrogen [5]: 140.6 Å²
42 | 164.1 | – | 166.7 | CCCCCCCCCC[N+](C)(C)[O-] [N,N-Dimethyldecylamine oxide] | –
43 | – | – | 165.4 | CCOC(=O)Cn1c(=O)sc2cccc(Cl)c21 [Benazolin-ethyl] | –
44 | 128.4 | – | – | OCCCc1cccnc1 [3-(3-Pyridyl)-1-propanol] | collision cross section in nitrogen [5]: 128 Å²
45 | – | 169.5 | 175.8 | CCCCCCCCCCCC(=O)N(C)CC(=O)O [Glycine, N-methyl-N-(1-oxododecyl)-, sodium salt] | –
46 | – | 151.6 | – | N[C@@H](Cc1c[nH]c2ccccc12)C(=O)O [l-Tryptophan] | –
47 | – | 130.5 | – | O=C1NS(=O)(=O)c2ccccc21 [Calcium saccharin hydrate] | –
48 | 229.4 | 232.9 | 234.4 | COc1ccccc1Oc1c(NS(=O)(=O)c2ccc(C(C)(C)C)cc2)nc(-c2ncccn2)nc1OCCO [Bosentan hydrate] | collision cross section in nitrogen [5]: 229.9 Å²
49 | 210.8 | 216.1 | 223.5 | O=C(O)c1ccccc1-n1cc(C(=O)O)c(=O)c2cc(Nc3c(F)cc(F)cc3Cl)c(Cl)cc21 [AVE9423] | collision cross section in nitrogen [5]: 210.6 Å²
50 | – | 151.5 | – | CC(=O)OC/C=C(\C)CCC=C(C)C [Geranyl acetate] | –
51 | – | – | – | CCCCCCCCCCCCCCCC[N+](C)(C)CC [Quaternium 17] | collision cross section in nitrogen [4]: 196.1 Å²; collision cross section in nitrogen [1]: 197.2 Å²

Row | SMILES | collision cross section in nitrogen [2] [Å²] | collision cross section in nitrogen [3] [Å²] | collision cross section in nitrogen [6] [Å²] | further results
52 | CN(C)P(=O)(N(C)C)N(C)C [Hexamethylphosphoramide] | 135.3 | – | 152.8 | collision cross section in nitrogen [5]: 134.4 Å²
53 | C[C@H]1C(=O)O[C@@H]2CCN3CC=C(COC(=O)[C@](C)(O)[C@]1(C)O)[C@H]23 [Monocrotaline] | 175.3 | – | 178.6 | collision cross section in nitrogen [5]: 175.4 Å²
54 | O=C(O)C(F)(F)C(F)(F)C(F)(F)C(F)(F)C(F)(F)C(F)(F)C(F)(F)F [Perfluorooctanoic acid] | – | 157 | – | –
55 | CNC(=O)N(C)c1nnc(C(C)(C)C)s1 [Tebuthiuron] | 150.5 | – | 162.9 | collision cross section in nitrogen [5]: 150.4 Å²
56 | CC(=NNC(=O)Nc1cc(F)cc(F)c1)c1ncccc1C(=O)O [Diflufenzopyr-sodium] | – | – | 182.3 | –
57 | COP(=O)(OC)O/C(C)=C/C(=O)N(C)C [Dicrotophos] | – | – | 153.2 | collision cross section in nitrogen [5]: 150.2 Å²
58 | O=[N+]([O-])/N=C1\NCCN1Cc1ccc(Cl)nc1 [Imidacloprid] | 156 | 157.3 | 159.5 | –
59 | CNC(=O)ON=CC(C)(C)S(C)=O (configuration not stated) [Aldicarb sulfoxide] | – | – | 147.4 | –
60 | C1CCC(NC2CCCCC2)CC1 [Dicyclohexylamine] | 146.9 | – | – | collision cross section in nitrogen [5]: 147.6 Å²
61 | CC(C)(C)c1cc(C(C)(C)C)c(O)c(C(C)(C)C)c1 [2,4,6-Tris(tert-butyl)phenol] | – | 173.2 | – | –
62 | OC(Cn1cncn1)(c1ccc(F)cc1)c1ccccc1F (configuration not stated) [Flutriafol] | 167.5 | – | 183.1 | –
63 | Cc1ccccc1CO[C@@H]1C[C@@]2(C(C)C)CC[C@]1(C)O2 [Cinmethylin] | – | – | 169.7 | –

Reference: the supplement of paper PMC12317010
